Experiments:
Experiment in all cases: relative viability (nuclei count vs DMSO), 5 days (fraction); higher = more cells survive
[1] = compound: Cn1cc(-c2cnn3c(N)c(Br)c([C@@H]4CCCNC4)nc23)cn1 + Nc1nc2[nH]cc(CCc3ccc(C(=O)N[C@@H](CCC(=O)O)C(=O)O)cc3)c2c(=O)[nH]1 [Pemetrexed] (partner 0.2 µM)
Method in brief: (§1)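 Medians of duplicate plates are given as relative viability. That measure is the nuclei count in treated wells divided by the count in vehicle wells. Counts were taken on 4× images of lung cancer cell lines in 1536-well plates, 5 days after pin-tool dosing the day after seeding with one drug alone or a fixed anchor-drug dose plus five library-drug doses (not always all listed) in √10 steps.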

[2] = compound: Cn1cc(-c2cnn3c(N)c(Br)c([C@@H]4CCCNC4)nc23)cn1 + C[C@]1(O)C[C@@H](c2nc(-c3ccc4ccc(-c5ccccc5)nc4c3)c3c(N)nccn32)C1 [Linsitinib] (partner 1 µM)
Method in brief: as §1

[3] = compound: Cn1cc(-c2cnn3c(N)c(Br)c([C@@H]4CCCNC4)nc23)cn1 + CC1(C)CCC(c2ccc(Cl)cc2)=C(CN2CCN(c3ccc(C(=O)NS(=O)(=O)c4ccc(N[C@H](CCN5CCOCC5)CSc5ccccc5)c(S(=O)(=O)C(F)(F)F)c4)cc3)CC2)C1 [Navitoclax] (partner 0.5 µM)
Method in brief: as §1

[4] = compound: Cn1cc(-c2cnn3c(N)c(Br)c([C@@H]4CCCNC4)nc23)cn1 + O=C(CCCCCCC(=O)Nc1ccccc1)NO [Vorinostat] (partner 1 µM)
Method in brief: as §1

Cell Line | relative viability ([1]; first compound 0.05 µM) | relative viability ([1]; first compound 0.1581 µM) | relative viability ([1]; first compound 0.5 µM) | relative viability ([1]; first compound 1.581 µM) | relative viability ([1]; first compound 5 µM) | relative viability ([2]; first compound 0.05 µM) | relative viability ([2]; first compound 0.1581 µM) | relative viability ([2]; first compound 0.5 µM) | relative viability ([2]; first compound 1.581 µM) | relative viability ([2]; first compound 5 µM) | relative viability ([3]; first compound 0.05 µM) | relative viability ([3]; first compound 0.1581 µM) | relative viability ([3]; first compound 0.5 µM) | relative viability ([3]; first compound 1.581 µM) | relative viability ([3]; first compound 5 µM) | relative viability ([4]; first compound 0.05 µM) | relative viability ([4]; first compound 0.1581 µM) | relative viability ([4]; first compound 0.5 µM) | relative viability ([4]; first compound 1.581 µM) | relative viability ([4]; first compound 5 µM)
PC-14 | 0.13 | 0.1 | 0.102 | 0.089 | 0.0648 | 0.854 | 1.11 | 1.05 | 0.877 | 0.578 | 1.06 | 1.14 | 0.924 | 0.69 | 0.444 | 0.752 | 0.601 | 0.527 | 0.223 | 0.117
RERF-LC-KJ | 0.459 | 0.476 | 0.477 | 0.422 | 0.478 | 0.932 | 0.936 | 0.914 | 0.809 | 0.749 | 1.2 | 0.927 | 0.884 | 0.707 | 0.678 | 0.636 | 0.808 | 0.802 | 0.599 | 0.6
SK-LU-1 | 0.955 | 0.612 | 0.536 | 0.321 | 0.227 | 1.13 | – | 0.465 | 0.318 | 0.255 | 0.717 | – | 0.254 | 0.188 | 0.186 | 0.92 | 0.631 | 0.407 | 0.369 | 0.281
SK-MES-1 | 1.05 | 0.755 | 0.651 | 0.351 | 0.258 | 1.05 | 1.1 | 1.04 | 0.971 | 0.289 | 1.29 | 1.25 | 1.11 | 1.02 | 0.352 | 1.22 | 0.877 | 0.788 | 0.38 | 0.216
SW 1573 | 1 | 0.759 | 0.832 | 0.526 | 0.824 | 0.689 | 0.775 | 0.888 | 0.753 | 0.805 | 0.976 | 1.07 | 1.08 | 0.853 | 1.07 | 0.818 | 0.967 | 0.682 | 0.582 | 0.721
UMC-11 | 0.841 | 0.753 | 0.626 | 0.657 | 0.429 | 1.18 | 1.08 | 0.991 | 0.818 | 0.507 | 0.316 | 0.268 | 0.298 | 0.271 | 0.229 | 0.331 | 0.313 | 0.345 | 0.334 | 0.291

Source: the supplement of paper PMC10307832
